Test results reported in ChEMBL document CHEMBL1201862, “PubChem BioAssay data set” (2004).
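Results reflect a 48-hour exposure of cells in 96-well plates to compound at five concentrations. GI50: concentration for 50% inhibition of growth.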 Activity calls are given as the source filed them. Cut-off read from the data, not from the text of the source: active = GI50 up to about 1.1 µM and inactive = higher.

Key:
Experiment in all cases: growth of human tumour cells (NCI), 48 h
[1] = system: NCI-H23
[2] = system: HT-29
[3] = system: SN12C
[4] = system: ACHN
[5] = system: M14
[6] = system: RPMI-8226
[7] = system: MCF7
[8] = system: K562
[9] = system: T47D
[10] = system: U-251
[11] = system: UO-31
[12] = system: HCT-15
[13] = system: 786-0
[14] = system: A498
[15] = system: TK-10
[16] = system: HOP-62
[17] = system: NCI-H460
[18] = system: OVCAR-4
[19] = system: NCI/ADR-RES
[20] = system: MDA-N
[21] = system: OVCAR-8
[22] = system: RXF 393
[23] = system: DU-145
[24] = system: A549
[25] = system: SR
[26] = system: SK-OV-3
[27] = system: SF-295
[28] = system: Hs-578T
[29] = system: NCI-H226
[30] = system: NCI-H522
[31] = system: CCRF-CEM
[32] = system: SK-MEL-5
[33] = system: MDA-MB-231
[34] = system: EKVX
[35] = system: BT-549
[36] = system: MOLT-4
[37] = system: OVCAR-3
[38] = system: OVCAR-5
[39] = system: SK-MEL-28
[40] = system: HOP-92
[41] = system: SW-620
[42] = system: KM12
[43] = system: CAKI-1
[44] = system: MDA-MB-435
[45] = system: SF-268
[46] = system: PC-3
[47] = system: SNB-19
[48] = system: SK-MEL-2
[49] = system: SF-539
[50] = system: UACC-62
[51] = system: Malme-3M
[52] = system: HCT-116
[53] = system: IGROV-1
[54] = system: LOX IMVI
[55] = system: HCC 2998
[56] = system: UACC-257
[57] = system: SNB-75
[58] = system: COLO 205
[59] = system: HL-60

With `C=CCN1CN(C2CCCCC2)CSC1=S` as the compound, how does the GI50 [1] read?
Its GI50 is 8.28 µM (inactive).

What about the GI50 [2] of the same compound?
The GI50 was 3.48 µM (inactive).

What about the GI50 [3] of the same compound?
The GI50 was 6.84 µM (inactive).

What about the GI50 [4] of the same compound?
The GI50 was 4.02 µM (inactive).

What about the GI50 [5] of the same compound?
The GI50 was 2.77 µM (inactive).

What about the GI50 [6] of the same compound?
The GI50 was 1.04 µM (active).

And the GI50 [7]?
The GI50 was 1.26 µM (inactive).

And the GI50 [8]?
The GI50 was 0.652 µM (active).

What about the GI50 [9] of the same compound?
Its GI50 is 0.883 µM (active).

What about the GI50 [10] of the same compound?
The GI50 was 3.59 µM (inactive).

What about the GI50 [11] of the same compound?
The GI50 was 8 µM (inactive).

What about the GI50 [12] of the same compound?
Its GI50 is 2.54 µM.

And the GI50 [13]?
The GI50 was 3.27 µM (inactive).

And the GI50 [14]?
The GI50 was 14.3 µM (inactive).

And the GI50 [15]?
Its GI50 is 3.69 µM (inactive).

What about the GI50 [16] of the same compound?
Its GI50 is 5.57 µM (inactive).

What about the GI50 [17] of the same compound?
The GI50 was 4.12 µM (inactive).

What about the GI50 [18] of the same compound?
Its GI50 is 12.8 µM (inactive).

And the GI50 [19]?
Its GI50 is 8.83 µM (inactive).

And the GI50 [20]?
Its GI50 is 2.16 µM (inactive).

And the GI50 [21]?
The GI50 was 4.06 µM (inactive).

What about the GI50 [22] of the same compound?
Its GI50 is 4.04 µM (inactive).

And the GI50 [23]?
The GI50 was 2.23 µM (inactive).

What about the GI50 [24] of the same compound?
The GI50 was 16.5 µM (inactive).

What about the GI50 [25] of the same compound?
The GI50 was 0.148 µM (active).

What about the GI50 [26] of the same compound?
Its GI50 is 14.4 µM (inactive).

And the GI50 [27]?
Its GI50 is 28.4 µM (inactive).

And the GI50 [28]?
Its GI50 is 4.94 µM (inactive).

And the GI50 [29]?
The GI50 was 14.6 µM (inactive).

What about the GI50 [30] of the same compound?
The GI50 was 2.8 µM (inactive).

And the GI50 [31]?
Its GI50 is 0.818 µM (active).

And the GI50 [32]?
The GI50 was 2.68 µM (inactive).

What about the GI50 [33] of the same compound?
Its GI50 is 15.5 µM (inactive).

And the GI50 [34]?
Its GI50 is 15.6 µM (inactive).

What about the GI50 [35] of the same compound?
The GI50 was 7.69 µM (inactive).

And the GI50 [36]?
Its GI50 is 1.11 µM (active).

And the GI50 [37]?
Its GI50 is 7.01 µM (inactive).

And the GI50 [38]?
The GI50 was 9.08 µM (inactive).

And the GI50 [39]?
The GI50 was 5.18 µM (inactive).

And the GI50 [40]?
The GI50 was 5.18 µM (inactive).

What about the GI50 [41] of the same compound?
Its GI50 is 0.733 µM (active).

What about the GI50 [42] of the same compound?
The GI50 was 3.19 µM (inactive).

And the GI50 [43]?
Its GI50 is 4.72 µM (inactive).

And the GI50 [44]?
Its GI50 is 0.944 µM (active).

What about the GI50 [45] of the same compound?
The GI50 was 2.32 µM (inactive).

And the GI50 [46]?
The GI50 was 5.02 µM (inactive).

What about the GI50 [47] of the same compound?
The GI50 was 16.9 µM (inactive).

What about the GI50 [48] of the same compound?
Its GI50 is 8.18 µM (inactive).

And the GI50 [49]?
Its GI50 is 1.36 µM (inactive).

What about the GI50 [50] of the same compound?
The GI50 was 5.86 µM (inactive).

And the GI50 [51]?
Its GI50 is 3.16 µM (inactive).

What about the GI50 [52] of the same compound?
The GI50 was 1.55 µM (inactive).

And the GI50 [53]?
Its GI50 is 8.34 µM (inactive).

And the GI50 [54]?
The GI50 was 3.9 µM (inactive).

And the GI50 [55]?
The GI50 was 8.17 µM (inactive).

What about the GI50 [56] of the same compound?
The GI50 was 3.68 µM (inactive).

What about the GI50 [57] of the same compound?
The GI50 was 6.12 µM (inactive).

What about the GI50 [58] of the same compound?
Its GI50 is 3.32 µM (inactive).

And the GI50 [59]?
Its GI50 is 0.129 µM (active).

How did the GI50 [1] turn out when `CCOC(=O)c1c(C)n(-c2ccc(C)cc2)c2c1cc(O)c1[nH]c3c(c12)CCCC3` was run?
Its GI50 is 20.3 µM (inactive).

What about the GI50 [2] of the same compound?
The GI50 was 14.9 µM (inactive).

And the GI50 [3]?
The GI50 was 27.5 µM (inactive).

What about the GI50 [4] of the same compound?
Its GI50 is 22.1 µM (inactive).

And the GI50 [5]?
The GI50 was 16.6 µM (inactive).

And the GI50 [6]?
The GI50 was 4.07 µM (inactive).

And the GI50 [7]?
The GI50 was 16.5 µM (inactive).

What about the GI50 [8] of the same compound?
Its GI50 is 17.7 µM (inactive).

What about the GI50 [9] of the same compound?
The GI50 was 20.9 µM (inactive).

And the GI50 [10]?
Its GI50 is 14.8 µM (inactive).

What about the GI50 [11] of the same compound?
The GI50 was 13.9 µM (inactive).

What about the GI50 [12] of the same compound?
The GI50 was 24.3 µM.

And the GI50 [13]?
The GI50 was 16.9 µM (inactive).

What about the GI50 [14] of the same compound?
The GI50 was 13.9 µM (inactive).

What about the GI50 [15] of the same compound?
Its GI50 is 27.5 µM (inactive).

And the GI50 [16]?
The GI50 was 27.9 µM (inactive).

What about the GI50 [17] of the same compound?
The GI50 was 24.8 µM (inactive).

And the GI50 [18]?
The GI50 was 13.7 µM (inactive).

What about the GI50 [19] of the same compound?
Its GI50 is 39.8 µM (inactive).

What about the GI50 [20] of the same compound?
Its GI50 is 20.6 µM (inactive).

And the GI50 [21]?
Its GI50 is 22.4 µM (inactive).

And the GI50 [22]?
Its GI50 is 12 µM (inactive).

And the GI50 [23]?
Its GI50 is 12.8 µM (inactive).

What about the GI50 [24] of the same compound?
The GI50 was 18.8 µM (inactive).

And the GI50 [25]?
Its GI50 is 0.0566 µM (active).

What about the GI50 [26] of the same compound?
Its GI50 is 87.3 µM (inactive).

What about the GI50 [27] of the same compound?
Its GI50 is 20.6 µM (inactive).

And the GI50 [28]?
The GI50 was < 0.01 µM (active).

And the GI50 [29]?
Its GI50 is 23.8 µM (inactive).

What about the GI50 [30] of the same compound?
The GI50 was 12.7 µM (inactive).

What about the GI50 [31] of the same compound?
Its GI50 is 1.38 µM (inactive).

What about the GI50 [32] of the same compound?
Its GI50 is 11.9 µM (inactive).

And the GI50 [33]?
Its GI50 is 20 µM (inactive).

And the GI50 [34]?
The GI50 was 26.1 µM (inactive).

And the GI50 [35]?
Its GI50 is 10.1 µM (inactive).

And the GI50 [36]?
Its GI50 is 8.77 µM (inactive).

What about the GI50 [37] of the same compound?
The GI50 was 12.9 µM (inactive).

And the GI50 [38]?
Its GI50 is 23.5 µM (inactive).

And the GI50 [39]?
The GI50 was 16.3 µM (inactive).

What about the GI50 [40] of the same compound?
The GI50 was 2.92 µM (inactive).

And the GI50 [41]?
Its GI50 is 17.6 µM (inactive).

What about the GI50 [42] of the same compound?
The GI50 was 16.7 µM (inactive).

What about the GI50 [43] of the same compound?
Its GI50 is 27.9 µM (inactive).

What about the GI50 [44] of the same compound?
The GI50 was 20.1 µM (inactive).

What about the GI50 [45] of the same compound?
Its GI50 is 17.5 µM (inactive).

And the GI50 [46]?
Its GI50 is 12.9 µM (inactive).

And the GI50 [47]?
The GI50 was 19.4 µM (inactive).

And the GI50 [48]?
Its GI50 is 12.4 µM (inactive).

And the GI50 [49]?
The GI50 was 15.7 µM (inactive).

And the GI50 [50]?
The GI50 was 17.3 µM (inactive).

What about the GI50 [51] of the same compound?
The GI50 was 17.7 µM (inactive).

And the GI50 [52]?
Its GI50 is 21.8 µM (inactive).

What about the GI50 [53] of the same compound?
Its GI50 is 13.8 µM (inactive).

What about the GI50 [54] of the same compound?
The GI50 was 14.4 µM (inactive).

What about the GI50 [55] of the same compound?
Its GI50 is 14.6 µM (inactive).

And the GI50 [56]?
The GI50 was 21.2 µM (inactive).

What about the GI50 [57] of the same compound?
Its GI50 is 0.0658 µM (active).

What about the GI50 [58] of the same compound?
The GI50 was 25.6 µM (inactive).

And the GI50 [59]?
The GI50 was 7.4 µM (inactive).
